This is an account of results in article PMC6933783 (ACS Omega, 2019).

Experiment [1] deals with T1, MAO-B (Homo sapiens, UniProt P27338).
T1 sequence (P27338 1-520): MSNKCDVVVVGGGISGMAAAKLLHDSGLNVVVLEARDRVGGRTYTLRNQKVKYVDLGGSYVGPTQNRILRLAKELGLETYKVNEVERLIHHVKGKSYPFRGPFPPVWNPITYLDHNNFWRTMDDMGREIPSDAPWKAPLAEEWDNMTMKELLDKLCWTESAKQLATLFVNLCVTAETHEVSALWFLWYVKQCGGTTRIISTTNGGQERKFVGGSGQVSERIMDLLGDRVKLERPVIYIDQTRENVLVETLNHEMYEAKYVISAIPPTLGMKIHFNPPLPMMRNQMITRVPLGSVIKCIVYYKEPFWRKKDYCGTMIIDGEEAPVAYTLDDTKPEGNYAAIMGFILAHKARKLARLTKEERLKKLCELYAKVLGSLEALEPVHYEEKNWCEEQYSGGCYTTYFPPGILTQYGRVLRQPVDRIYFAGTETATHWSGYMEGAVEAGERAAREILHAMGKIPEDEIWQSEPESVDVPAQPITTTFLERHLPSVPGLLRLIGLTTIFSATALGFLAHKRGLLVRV
The experiment is described as follows: Reversibility of MAO-B inhibition. Type of experiment: biochemical. The conditions noted are these: dilution assay, 30 min preincubation, Figure S3.

In experiment [2] the target is human acetylcholinesterase (AChE) (Homo sapiens, UniProt P22303). The experiment is described as follows: Cholinesterase assay. It counts as biochemical. The note with it: for αKi ± SE, AChE: uncompetitive contribution, Lineweaver-Burk plots.
Chain of human acetylcholinesterase (AChE) (P22303 32-617 isoform P22303-2 limits assumed): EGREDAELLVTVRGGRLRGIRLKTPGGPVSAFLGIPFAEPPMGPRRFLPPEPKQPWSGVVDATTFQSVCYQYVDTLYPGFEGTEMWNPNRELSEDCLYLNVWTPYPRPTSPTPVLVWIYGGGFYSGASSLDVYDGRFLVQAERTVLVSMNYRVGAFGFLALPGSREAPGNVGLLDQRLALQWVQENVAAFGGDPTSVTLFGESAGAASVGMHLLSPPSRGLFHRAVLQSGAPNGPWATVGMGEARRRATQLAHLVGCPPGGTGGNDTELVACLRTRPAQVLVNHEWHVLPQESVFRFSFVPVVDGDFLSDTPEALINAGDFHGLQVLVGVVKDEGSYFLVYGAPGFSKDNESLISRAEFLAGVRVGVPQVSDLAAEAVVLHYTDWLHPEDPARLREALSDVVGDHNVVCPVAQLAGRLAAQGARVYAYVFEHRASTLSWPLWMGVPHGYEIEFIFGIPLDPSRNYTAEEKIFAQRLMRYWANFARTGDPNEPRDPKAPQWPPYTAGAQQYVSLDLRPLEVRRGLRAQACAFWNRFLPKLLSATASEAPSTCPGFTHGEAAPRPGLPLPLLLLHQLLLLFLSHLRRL

The structures appear in SMILES notation.

`O=c1ccoc2ccc(OCCCCN3CCCCC3)cc12` [Compound 7, 6-(4-(piperidin-1-yl)butoxy)-4H-chromen-4-one]: the “reversibility of MAO-B inhibition” value in experiment [1] is “reversibility of MAO-B inhibition was exemplarily demonstrated”. As for `CN1CCN(CCCCOc2ccc3occc(=O)c3c2)CC1` [Compound 15, 6-(4-(4-Methylpiperazin-1-yl)butoxy)-4H-chromen-4-one], in experiment [2], the Ki came to 2.06 ± 0.56 µM and the “αKi ± SE, AChE” value was 5.36 ± 0.70 µM. On the same counts, the results for `C[C@@H]1CCCN1CCCCOc1ccc2occc(=O)c2c1` [Compound 27] are 9.23 ± 5.01 µM and 19.0 ± 4.1 µM.
